Assay results from patent US11000033B2, “Ketone or oxime compound, and herbicide” (NISSAN CHEMICAL CORPORATION, priority 2014, dated 2021).

How the values were obtained:
Assay type in all cases: in vivo
[1] = tested on: Monochoria vaginalis; assay: Test Example 1: herbicidal activity, application before weed generation in submerged conditions (symbol C); conditions: application herbicide amount 320 g/ha
Summary of the method: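 In a flooded pot test with alluvial soil, the emulsion-formulated compound was diluted with water to a predetermined amount and applied to the floodwater immediately on the sowing day. Pots were held in a greenhouse at 25–30 °C for 3 weeks before each weed was rated.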

[2] = tested on: Lolium multiflorum Lam.; assay: Test Example 5: herbicidal effect by foliage application, plastic box (symbol K); conditions: 320 g/ha, 3 weeks after application
Summary of the method: (§1)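 Emulsion formulation, diluted with water to the intended rate, was applied uniformly to leaves by small sprayer. Recipients were 14-day greenhouse-grown seedlings (25° C. to 30° C.). Assessment followed at 3 weeks.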

[3] = tested on: Scirpus juncoides; assay: Test Example 2: herbicidal activity, application during weed generation in submerged conditions (symbol B); conditions: Table 23; application herbicide amount 320 g/ha; grade 0-5 by criteria of Test Example 1
Summary of the method: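 Paddy pot test, submerged (4 cm water), alluvial soil, mixed sowing; greenhouse 25–30° C. Emulsion formulation diluted to predetermined rate, applied onto floodwater at 1–2 leaf stage. Visual herbicidal rating at 3 wk post-treatment.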

[4] = tested on: beet; assay: Test Example 4: effect on crop by soil treatment (symbol f); conditions: application herbicide amount 320 g/ha
Summary of the method: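 Soil-treatment setup: crop and weed seeds were spot-sown into sterilized diluvial soil, then buried beneath approximately 1.5 cm of it, and the boxes were housed in a 25–30° C. greenhouse.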

[5] = tested on: Echinochloa crus-galli var. crus-galli; assay: Test Example 5: herbicidal effect by foliage application, plastic box (symbol H); conditions: 320 g/ha, 3 weeks after application
Summary of the method: as §1

[6] = tested on: directly sowed rice plant; assay: Test Example 3: effect on crop by foliage application, Wagner pot (symbol b); conditions: application herbicide amount 320 g/ha
Summary of the method: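 Steps: fill a 1/10000-are Wagner pot with alluvial soil; add water and mix to submerge at 0.1–0.5 cm depth; sow rice plus Echinochloa crus-galli var. crus-galli, Leptochloa chinensis and Cyperus difformis; grow in a 25–30 °C greenhouse.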

[7] = tested on: soybean; assay: Test Example 5: effect on crop by foliage application, plastic box (symbol d); conditions: 320 g/ha, 3 weeks after application
Summary of the method: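 Sterilized diluvial soil, plastic box (21 × 13 × 7 cm); spot sowing, ~1.5 cm soil cover; greenhouse 25–30° C.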

[8] = tested on: Stellaria media; assay: Test Example 4: herbicidal effect by soil treatment (symbol P); conditions: application herbicide amount 320 g/ha
Summary of the method: (§2)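 Seeds were sown in sterilized diluvial soil, covered with about 1.5 cm of soil, and the soil surface was sprayed with a water-diluted emulsion of the compound at a predetermined rate. Plants grew in a greenhouse at 25° C. to 30° C.; effects were scored visually 3 weeks after application.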

[9] = tested on: Abutilon theophrasti; assay: Test Example 4: herbicidal effect by soil treatment (symbol M); conditions: application herbicide amount 320 g/ha
Summary of the method: as §2

| SMILES | Herbicidal effect grade, C: Monochoria vaginalis [1] | K: Lolium multiflorum Lam., herbicidal effect (criteria of Test Example 1) [2] | Herbicidal effect grade, B: Scirpus juncoides [3] | Effect on crop grade, f: beet [4] | H: Echinochloa crus-galli var. crus-galli, herbicidal effect (criteria of Test Example 1) [5] | effect on crop b (directly sowed rice plant), grade 0-5 [6] | d: soybean, effect on crop (criteria of Test Example 1) [7] | Herbicidal effect grade, P: Stellaria media [8] | Herbicidal effect grade, M: Abutilon theophrasti [9] | f: beet, effect on crop grade [4] | P: Stellaria media, herbicidal effect grade [8] | M: Abutilon theophrasti, herbicidal effect grade [9] |
| --- | --- | --- | --- | --- | --- | --- | --- | --- | --- | --- | --- | --- |
| CON=C(C)CC1CC(OC(=O)N2CCCC2)=C(c2c(C)cc(C)cc2OC)C1=O (stereo not drawn) [6-110] | 0 (Herbicidal ratio of 5% or lower (almost no effect)) | 5 (Herbicidal ratio of 90% or more (almost completely withered)) | 1 (Herbicidal ratio of 5% or higher and lower than 20%) | 0 (Herbicidal ratio of 5% or lower (almost no effect)) | 5 (Herbicidal ratio of 90% or more (almost completely withered)) | 5 (Herbicidal ratio of 90% or more (almost completely withered)) | 2 (Herbicidal ratio of 20% or higher and lower than 40%) | 0 (Herbicidal ratio of 5% or lower (almost no effect)) | 0 (Herbicidal ratio of 5% or lower (almost no effect)) |  |  |  |
| CON=C(C)CC1CC(OC(=O)N2CCOCC2)=C(c2c(C)cc(-c3ccc(F)cc3)cc2C)C1=O (mixture of isomers) [6-059] | 4 (Herbicidal ratio of 70% or higher and lower than 90%) | 5 (Herbicidal ratio of 90% or more (almost completely withered)) | 4 (Herbicidal ratio of 70% or higher and lower than 90%) |  | 5 (Herbicidal ratio of 90% or more (almost completely withered)) | 5 (Herbicidal ratio of 90% or more (almost completely withered)) | 0 (Herbicidal ratio of 5% or lower (almost no effect)) |  |  | 0 (Herbicidal ratio of 5% or lower (almost no effect)) | 0 (Herbicidal ratio of 5% or lower (almost no effect)) | 0 (Herbicidal ratio of 5% or lower (almost no effect)) |
| CON=C(C)CC1CC(O)=C(c2c(C)cc(Br)cc2OC)C1=O (stereo not drawn) [6-076, 2-(4-bromo-2-methoxy-6-methylphenyl)-3-hydroxy-5-{2-(methoxyimino)propyl}cyclopent-2-enone] | 2 (Herbicidal ratio of 20% or higher and lower than 40%) | 5 (Herbicidal ratio of 90% or more (almost completely withered)) | 1 (Herbicidal ratio of 5% or higher and lower than 20%) |  | 5 (Herbicidal ratio of 90% or more (almost completely withered)) | 5 (Herbicidal ratio of 90% or more (almost completely withered)) | 1 (Herbicidal ratio of 5% or higher and lower than 20%) |  |  | 0 (Herbicidal ratio of 5% or lower (almost no effect)) | 0 (Herbicidal ratio of 5% or lower (almost no effect)) | 5 (Herbicidal ratio of 90% or more (almost completely withered)) |
| CC(=O)CC1CC(O)=C(c2c(C)cc(-c3ccccc3)cc2C)C1=O (stereo not drawn) [7-004] | 0 (Herbicidal ratio of 5% or lower (almost no effect)) | 5 (Herbicidal ratio of 90% or more (almost completely withered)) | 0 (Herbicidal ratio of 5% or lower (almost no effect)) | 0 (Herbicidal ratio of 5% or lower (almost no effect)) | 5 (Herbicidal ratio of 90% or more (almost completely withered)) | 5 (Herbicidal ratio of 90% or more (almost completely withered)) | 4 (Herbicidal ratio of 70% or higher and lower than 90%) | 0 (Herbicidal ratio of 5% or lower (almost no effect)) | 3 (Herbicidal ratio of 40% or higher and lower than 70%) |  |  |  |
